# According to patent publication US12637454B2, “Heterocyclic monoacylglycerol lipase (MAGL) inhibitors” (Hoffmann-La Roche Inc., priority 2019, dated 2026):
# pIC50: −log10 of the molar value.
# Biological target: T1, MAGL (Homo sapiens, UniProt Q99685)
# T1 sequence (Q99685 1-303): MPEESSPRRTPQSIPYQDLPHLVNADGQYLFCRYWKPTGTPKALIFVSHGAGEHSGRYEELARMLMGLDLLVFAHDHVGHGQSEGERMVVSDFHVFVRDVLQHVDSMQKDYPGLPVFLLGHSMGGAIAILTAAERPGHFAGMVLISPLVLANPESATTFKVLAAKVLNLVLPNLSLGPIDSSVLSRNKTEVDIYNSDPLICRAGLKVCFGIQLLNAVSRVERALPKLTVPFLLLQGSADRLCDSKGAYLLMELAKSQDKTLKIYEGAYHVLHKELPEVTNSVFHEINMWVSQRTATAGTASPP
# Experiment: 2-AG assay (MAGL inhibitory activity, hydrolysis of 2-arachidonoylglycerol followed by mass spectrometry)
# Assay type: biochemical
# Settings: 50 pM MAGL, 8 μM 2-arachidonoylglycerol, 15 min preincubation, 30 min incubation at RT
# Description: Compounds were profiled for MAGL inhibitory activity by determining the enzymatic activity by following the hydrolysis of the natural substrate 2-arachidonoylglycerol (2-AG) resulting in arachidonic acid, which can be followed by mass spectrometry. This assay is hereinafter abbreviated “2-AG assay”.
# The 2-AG assay was carried out in 384 well assay plates (PP, Greiner Cat #784201) in a total volume of 20 μL. Compound dilutions were made in 100% DMSO (VWR Chemicals 23500.297) in a polypropylene plate in 3-fold dilution steps to give a final concentration range in the assay from 12.5 μM to 0.8 pM. 0.25 μL compound dilutions (100% DMSO) were added to 9 μL MAGL in assay buffer (50 mM TRIS (GIBCO, 15567-027), 1 mM EDTA (Fluka, 03690-100 mL), 0.01% (v/v) Tween. After shaking, the plate was incubated for 15 min at RT. To start the reaction, 10 μL 2-arachidonoylglycerol in assay buffer was added. The final concentrations in the assay was 50 pM MAGL and 8 μM 2-arachidonoylglyerol. After shaking and 30 min incubation at RT, the reaction was quenched by the addition of […] of ACN containing 4 μM of d8-arachidonic acid. The amount of arachidonic acid was traced by an online SPE system (Agilent Rapidfire) coupled to a triple quadrupole mass spectrometer (Agilent 6460). A C18 SPE cartridge (G9205A) was used in an ACN/water liquid setup. The mass spectrometer was operated in negative electrospray mode following the mass transitions 303.1→259.1 for arachidonic acid and 311.1→267.0 for d8-arachidonic acid. The activity of the compounds was calculated based on the ratio of intensities [arachidonic acid/d8-arachidonic acid].
row,Compound,pIC50
1,"Cc1c[nH]nc1-c1cccc(C(=O)N2CCN3C[C@@](O)(c4ccc(Cl)cc4)CC[C@@H]3C2)c1F [Example 15, [(7S,9aR)-7-(4-chlorophenyl)-7-hydroxy-3,4,6,8,9,9a-hexahydro-1H-pyrido[1,2-a]pyrazin-2-yl]-[2-fluoro-3-(4-methl1-1H-pyrazol-3-yl)phenyl]methanone]",6.77
2,"COc1cccc(C(=O)N2CCN3C[C@@](O)(CC(C)C)CC[C@@H]3C2)c1Cl (racemic) [Example 24, (2-Chloro-3-methoxyphenyl)-[rac-(7R,9aS)-7-hydroxy-7-(2-methylpropyl)-3,4,6,8,9,9a-hexahydro-1H-pyrido[1,2-a]pyrazin-2-yl]methanone]",6.20
3,"O=C(c1cccc(N2CC(F)(CO)C2)c1Cl)N1CCN2C[C@@](O)(c3ccc(F)c(Cl)c3)CC[C@@H]2C1 [Example 52, [(7S,9aR)-7-(3-chloro-4-fluorophenyl)-7-hydroxy-3,4,6,8,9,9a-hexahydro-1H-pyrido[1,2-a]pyrazin-2-yl]-[2-chloro-3-[3-fluoro-3-(hydroxymethyl)azetidin-1-yl]phenyl]methanone]",7.07
4,"O=C(c1cccc(N2CC(O)C2)c1Cl)N1CCN2C[C@@](O)(c3ccc(F)c(F)c3)CC[C@@H]2C1 [Example 63, [(7S,9aR)-7-(3,4-difluorophenyl)-7-hydroxy-3,4,6,8,9,9a-hexahydro-1H-pyrido[1,2-a]pyrazin-2-yl]-[2-chloro-3-(3-hydroxyazetidin-1-yl)phenyl]methanone]",7.40
5,"C=CC(=O)Nc1ccc(/C=C/c2cccc(C(=O)N3CCN4C[C@@H](c5ccc(Cl)cc5)CC[C@@H]4C3)c2Br)cc1 [Example 30, N-[4-[(E)-2-[3-[(7R,9aR)-7-(4-chlorophenyl)-1,3,4,6,7,8,9,9a-octahydropyrido[1,2-a]pyrazine-2-carbonyl]-2-bromophenyl]ethenyl]phenyl]prop-2-enamide]",7.73
6,"O=C(c1cccc(-c2ccsn2)c1Cl)N1CCN2C[C@@](O)(c3ccc(C(F)(F)F)cn3)CC[C@@H]2C1 [Example 69, [(7R,9aR)-7-hydroxy-7-[5-(trifluoromethyl)pyridin-2-yl]-3,4,6,8,9,9a-hexahydro-1H-pyrido[1,2-a]pyrazin-2-yl]-[2-chloro-3-(1,2-thiazol-3-yl)phenyl]methanone]",6.90
7,"O=C(c1cccc(N2CCNCC2)c1F)N1CCN2C[C@@](O)(c3ccc(Cl)cc3)CC[C@@H]2C1 [Example 23, [(7S,9aR)-7-(4-chlorophenyl)-7-hydroxy-3,4,6,8,9,9a-hexahydro-1H-pyrido[1,2-a]pyrazin-2-yl]-(2-fluoro-3-piperazin-1-ylphenyl)methanone]",6.18
8,"COc1cccc(C(=O)N2CCN3CC(O)(c4ccc(C(F)(F)F)nc4)CCC3C2)c1Cl (racemic) [Example 72, (2-chloro-3-methoxyphenyl)-[rac-(7R,9aS)-7-hydroxy-7-[6-(trifluoromethyl)pyridin-3-yl]-3,4,6,8,9,9a-hexahydro-1H-pyrido[1,2-a]pyrazin-2-yl]methanone]",5.46
9,O=C(c1cccc(N2CC(O)C2)c1F)N1CCN2C[C@@](O)(c3ccc(Cl)cc3)CC[C@@H]2C1 [Example 10],7.24
10,"COc1cccc(C(=O)N2CCN3C[C@@](O)(C4CCCC4)CC[C@@H]3C2)c1Cl (racemic) [Example 25, (2-chloro-3-methoxyphenyl)-[rac-(7R,9aS)-7-cyclopentyl-7-hydroxy-3,4,6,8,9,9a-hexahydro-1H-pyrido[1,2-a]pyrazin-2-yl]methanone]",6.26
11,"O=C1CN(c2cccc(C(=O)N3CCN4C[C@@](O)(c5ccc(Cl)cc5)CC[C@@H]4C3)c2F)CCN1 [Example 34, 4-(3-((7S,9aR)-7-(4-chlorophenyl)-7-hydroxyoctahydro-2H-pyrido[1,2-a]pyrazine-2-carbonyl)-2-fluorophenyl)piperazin-2-one]",6.84
12,"CC1(O)CCN(c2cccc(C(=O)N3CCN4C[C@@](O)(c5ccc(Cl)cc5)CC[C@@H]4C3)c2Cl)C1 (mixture of isomers) [Example 50, [2-chloro-3-(3-hydroxy-3-methylpyrrolidin-1-yl)phenyl]-[rac-(7R,9aS)-7-(4-chlorophenyl)-7-hydroxy-3,4,6,8,9,9a-hexahydro-1H-pyrido[1,2-a]pyrazin-2-yl]methanone]",7.14
13,"O=C(c1cccc(N2CC[C@@H](O)C2)c1Cl)N1CCN2C[C@@](O)(c3ccc(F)c(Cl)c3)CC[C@@H]2C1 [Example 44, [(7S,9aR)-7-(3-chloro-4-fluorophenyl)-7-hydroxy-3,4,6,8,9,9a-hexahydro-1H-pyrido[1,2-a]pyrazin-2-yl]-[2-chloro-3-[(3R)-3-hydroxypyrrolidin-1-yl]phenyl]methanone]",7.81
14,COc1cccc(C(=O)N2CCN3C[C@@](O)(c4ccc(C(F)(F)F)cn4)CC[C@@H]3C2)c1Cl [Example 18],7.01
15,"O=C(c1cccc(-c2ccsn2)c1F)N1CCN2C[C@@](O)(c3ccc(Cl)cc3)CC[C@@H]2C1 [Example 56, [(7S,9aR)-7-(4-chlorophenyl)-7-hydroxy-3,4,6,8,9,9a-hexahydro-1H-pyrido[1,2-a]pyrazin-2-yl]-[2-fluoro-3-(1,2-thiazol-3-yl)phenyl]methanone]",7.43
16,"4-[(E)-2-[3-[(7R,9aR)-7-(4-Chlorophenyl)-1,3,4,6,7,8,9,9a-octahydropyrido[1,2-a]pyrazine-2-carbonyl]-2-bromo-phenyl]vinyl]-N-methyl-benzamide and 3-[(E)-2-[4-[(7R,9aR)-7-(4-chlorophenyl)-1,3,4,6,7,8,9,9a-octahydropyrido[1,2-a]pyrazine-2-carbonyl]phenyl]vinyl]-2-bromo-N-methyl-benzamide [Example 31]",8.43
17,CC(C)(C)OC(=O)Nc1ccc(/C=C/c2cccc(C(=O)N3CCN4C[C@@H](c5ccc(Cl)cc5)CC[C@@H]4C3)c2Br)cc1 [Example 29],8.12
18,O=C(c1cccc(-c2[nH]ncc2F)c1Cl)N1CCN2C[C@@](O)(c3ccc(C(F)(F)F)cn3)CC[C@@H]2C1 [Example 64],7.87
19,"O=C(c1cccc(-c2ccsn2)c1Cl)N1CCN2C[C@@](O)(c3ccc(Cl)cc3)CC[C@@H]2C1 [Example 67, [(7S,9aR)-7-(4-chlorophenyl)-7-hydroxy-3,4,6,8,9,9a-hexahydro-1H-pyrido[1,2-a]pyrazin-2-yl]-[2-chloro-3-(1,2-thiazol-3-yl)phenyl]methanone]",7.83
20,"O=C(c1cccc(-c2c[nH]nc2F)c1Cl)N1CCN2C[C@@](O)(c3ccc(Cl)cc3)CC[C@@H]2C1 [Example 5, [(7S,9aR)-7-(4-chlorophenyl)-7-hydroxy-3,4,6,8,9,9a-hexahydro-1H-pyrido[1,2-a]pyrazin-2-yl]-[2-chloro-3-(3-fluoro-1H-pyrazol-4-yl)phenyl]methanone]",8.71
21,"O=C1CN(c2cccc(C(=O)N3CCN4C[C@@](O)(c5ccc(Cl)cc5)CC[C@@H]4C3)c2Cl)CCN1 [Example 35, 4-[3-[(7S,9aR)-7-(4-chlorophenyl)-7-hydroxy-3,4,6,8,9,9a-hexahydro-1H-pyrido[1,2-a]pyrazine-2-carbonyl]-2-chlorophenyl]piperazin-2-one]",7.07
22,O=C(c1cccc(N2CC(O)C2)c1Cl)N1CCN2C[C@@](O)(c3ccc(F)c(Cl)c3)CC[C@@H]2C1 [Example 40],8.16
23,"O=C(c1cccc(-c2cc[nH]n2)c1F)N1CCN2C[C@@](O)(c3ccc(F)c(Cl)c3)CC[C@@H]2C1 [Example 55, [(7S,9aR)-7-(3-chloro-4-fluorophenyl)-7-hydroxy-3,4,6,8,9,9a-hexahydro-1H-pyrido[1,2-a]pyrazin-2-yl]-[2-fluoro-3-(1H-pyrazol-3-yl)phenyl]methanone]",8.04
24,"O=C(c1cccc(N2C[C@H](O)[C@@H](O)C2)c1Cl)N1CCN2C[C@@](O)(c3ccc(F)c(Cl)c3)CC[C@@H]2C1 [Example 51, [(7S,9aR)-7-(3-chloro-4-fluorophenyl)-7-hydroxy-3,4,6,8,9,9a-hexahydro-1H-pyrido[1,2-a]pyrazin-2-yl]-[2-chloro-3-[(3S,4S)-3,4-dihydroxypyrrolidin-1-yl]phenyl]methanone]",7.96
25,"O=C(c1cccc(N2CC[C@@H](O)C2)c1Cl)N1CCN2C[C@@](O)(c3ccc(Cl)cc3)CC[C@@H]2C1 [Example 45, [(7S,9aR)-7-(4-chlorophenyl)-7-hydroxy-3,4,6,8,9,9a-hexahydro-1H-pyrido[1,2-a]pyrazin-2-yl]-[2-chloro-3-[(3R)-3-hydroxypyrrolidin-1-yl]phenyl]methanone]",7.17
